Results from article PMC5869712 (Scientific Reports, 2018).

What was measured:
[1] = tested on: DBA/1 mice with collagen-induced arthritis; experiment: Collagen-induced arthritis mouse model: clinical score, histology, safety; type: in vivo; conditions: CIA mice; 30 mg/kg; model group 3.8; grades 0-4
Procedure: The animal protocol was approved by the Animal Care and Use Committee of Sichuan University in China (IACUC number: 20100318). DBA/1 J mice (male, 6 weeks old) were obtained from Jackson Laboratory (Bar Harbor, ME). One day before the start of the experiment, CII solution (2 mg/ml) was prepared with 0.05 M acetic acid and stored at 4 °C. Just before the immunization, equal volumes of IFA and CII were mixed by a homogenizer in a precooled glass bottle in an ice water bath. Arthritis was induced in 8-week old male DBA/1 mice by immunizations with a 1:1 emulsion of bovine type II collagen (Chondrex) and Freund’s complete adjuvant (Sigma-Aldrich) on day 0 and with a 1:1 emulsion of bovine type II collagen in Freund’s incomplete adjuvant (Sigma-Aldrich) on day 21. […] On the day treatment was initiated, the mice were randomly assigned to controls (no collagen injection plus vehicle; […]. Mice were scored daily for signs of arthritis for 33 days. CIA development was inspected three times per week, and the inflammation of the four paws was graded from 0 to 4 (grade 0, paws with no swelling or focal redness; grade 1, paws with swelling of finger joints; grade 2, paws with a mild swelling of the ankle or wrist joints; grade 3, paws with severe inflammation of the entire paw; and grade 4, paws with deformity or ankylosis). Each paw was graded, and the four scores were totalled so that the possible maximum score per mouse was 16.
DBA1/J mice were sacrificed on day 33 after treatment and ankle joints were removed and fixed with 4% paraformaldehyde for more than 48 h. The joints were decalcified in EDTA buffer for 21 days and then embedded in paraffin blocks. Joint sections were stained with H&E or safranin O-fast green. Histological changes were examined under microscope using methods modified from McKew et al.[43] as follows: grade 0 = no abnormal findings; grade 1 = synoviocyte hypertrophy, slight synovial membrane fibrosis, slight-to-mild inflammatory cell infiltrates into the synovial membrane/articular capsule and/or joint space; grade 2 = grade 1 plus mild-to-moderate inflammatory cell infiltrates, pannus formation (if present) minimal with superficial cartilage erosion; grade 3 = grade 2 plus marked inflammatory cell infiltrates and fibrosis, mild-to-severe erosion of the cartilage extending into the subchondral bone; and grade 4 = loss of joint integrity through erosion or destruction with bone remodelling, massive inflammatory cell infiltrates, fibrosis, and ankylosis.

[2] = tested on: cytokine gene transcription in joint tissue of CIA mice; experiment: Cytokine gene expression in joints of CIA mice by RT-PCR; type: in vivo, mouse

C[C@@H]1CCN(C(=O)CC#N)C[C@@H]1N(C)c1ncnc2[nH]ccc12 [Tofacitinib, reference compound]
group mean histological severity score [1]: 1.8
IL-10 expression [2]: significantly increased its expression
